Test results reported in US7214663B2, “Tripeptide prodrug compounds” (Medarex, Inc., priority 2001, dated 2007).
Non-standard residues stand in square brackets, D forms with d. Residues, ends and D or L forms follow the SMILES beside them. *: point of attachment. Daunorubicin = COc1cccc2c1C(=O)c1c(O)c3c(c(O)c1C2=O)C[C@@](O)(C(C)=O)C[C@@H]3O[C@H]1C[C@H](N*)[C@H](O)[C@H](C)O1; Sta = CC(C)C[C@H](N)[C@@H](O)CC(=O)O; pGlu = O=C1CC[C@@H](C(=O)O)N1; Isovaleryl = CC(C)CC(=O)*

Legend:
carcinoma cell trouase = test: Inhibitor profile of carcinoma cell trouase; format: biochemical, human
[1] = Metabolism and clearance of Suc-Leu-Ala-Leu-Dox in mice (plasma, urine); format: in vivo, mouse
Method: Plasma samples of 100 μl were transferred to microcentrifuge tubes (1.5 mL) and an internal standard of daunorubicin (20 μL at 0.5 mg/ml) was added together with acetonitrile (400 μl). The tubes were capped and briefly vortexed followed by centrifugation at 14,000 rpm. 420 μl from each tube was removed and dried in vacuo. Each sample was reconstituted in 65 μl 20 mM aqueous ammonium formate (AF) pH 4.5 buffer containing acetonitrile (20%) prior to analysis by reverse phase liquid chromatography in combination with tandem mass spectrometry (LC MS/MS).
Urine was collected at 2 and 24 hours post administration from pairs of mice in metabolic cages. Urine samples were diluted with AF buffer containing acetonitrile (20%) to give a target analyte concentration within the practical range of the LC MS/MS assay. 30 μl of each diluted sample was placed in a micro centrifuge tube (1.5 ml) and an internal standard of daunorubicin (20 μL at 0.5 mg/ml) was added together with 50 μl of AF buffer containing acetonitrile (20%). Each sample was then analyzed by LC MS/MS.
An Agilent HP1100 HPLC with DAD detector and Chemstation software was coupled to a PE Sciex API 365 mass spectrometer with an electrospray ion source. HPLC was performed on a TSK-Gel Super ODS, […], 4.6×50 mm (TosoHaas) reversed phase column equipped with a […] C18 guard disc (Higgins Analytical) and stainless steel frit (Upchurch Scientific). Chromatography was performed at room temperature. The flow rate was 0.5 ml/min. Injection volume was 50 μl. Gradient elution was performed using a mobile phase of AF buffer with increasing amounts of acetonitrile. The API 365 was operated at 365° C. in a multiple reaction monitoring mode, set to monitor specific analyte parent-daughter ion pairs. Integration of chromatograms was performed by MacQuan software (PE Sciex) and quantitation of each analyte obtained by comparison to previously obtained calibration curves. Daunorubicin was used as an internal standard in all cases.

[2] = Metabolism and clearance of Suc-Met-Ala-Leu-Dox in mice (plasma, urine); format: in vivo, mouse
Method: Plasma samples were obtained at 1 or 4 hours, and urine was collected at 2 and 24 hours post administration. Levels of the prodrug and metabolites were measured by LC-MS with UV detection of doxorubicin.

[3] = system: HeLa cell anion exchange fraction (F1), trouase; test: Relative cleavage by HeLa cell anion exchange fraction (F1) versus Suc-βAla-Leu-Ala-Leu standard; format: biochemical, human; details: 2 hr at 37° C., 12.5 μg/mL, HeLa F1; relative to Suc-βAla-Leu-Ala-Leu-(Dox or Dnr) standard
Method: Thirty billion commercially produced HeLa Cells (human cervical carcinoma, Computer Cell Culture Ceizter, Seneffe, Belgium) were homogenized with a sonicator and with a Dounce homogenizer in 108 mL of aqueous lysis solution. The lysis solution contained 0.02% w/v Triton X-100, 0.04% w/v sodium azide, and a cocktail of protease inhibitors (2 tablets/50 mL Complete™, EDTA-free tablets, Roche Molecular Biochemicals). The cell homogenate was centrifuged 30 minutes at 4° C. at 5000×g and the pellet was homogenized in a second 108 mL of lysis solution using a Dounce homogenizer and centrifuged as before. The supernatants were combined and centrifuged for 90 min at 145,000×g at 4° C.
A portion of the ultracentrifugation supernatant was diluted 2-fold with a 20 mM triethanolamine-HCl pH 7.2 buffer containing 0.01% (w/v) Triton X-100 and 0.02% (w/v) sodium azide (equilibration buffer). Thirty mL of the resulting solution, corresponding to approximately 180 mg of protein, was loaded at 4° C. on a 2.6×9.4 cm Source™ 15Q (Amersham Pharmacia Biotech) low pressure anion exchange chromatography column (1 ml/minute). The column was then washed with 250 ml of the equilibration buffer at a flow rate of 1 mL/minute. Proteins were eluted in a NaCl linear concentration gradient (0–0.5 M in the equilibration buffer, total volume of the gradient was 1000 ml) at a flow rate of 3 ml/minute. Two-minute fractions were collected and used for enzyme activity determination using βAla-Leu-Ala-Leu-Dox as the substrate. Its transformation into Ala-Leu-Dox was quantified by reverse phase high performance liquid chromatography utilizing fluorescence detection of the anthracycline moiety. The fractions containing the highest activity levels were pooled (fractions #43–46; ˜0.13 M NaCl), supplemented with protease inhibitors (Complete™, EDTA-free tablets, Roche Molecular Biochemicals), and stored as aliquots at −80° C.
Test compounds were incubated for 2 hr at 37° C. at a concentration of 12.5 μg/mL with HeLa cell anion exchange fraction (F1), as prepared in Example 1(c). Following incubation, three volumes of acetonitrile were added to stop the reaction and remove protein from the mixture. The sample was centrifuged at 18,000 g for 5 minutes and 100 μL of supernatant was mixed with 300 μL of water prior to analysis by HPLC. For HPLC analysis 50 μL of sample was injected on a 4.6×50 mm 2μ TSK Super-ODS chromatography column at 40° C. and eluted with a 3 minute linear gradient from 26% to 68% acetonitrile in aqueous 20 mM ammonium acetate pH 4.5 buffer at 2 mL/min. Detection was by fluorescence using an excitation wavelength of 235 nm and an emission wavelength of 560 nm.
the amount of cleavage of each test compound was compared to the amount of a standard Suc-βAla-Leu-Ala-Leu-therapeutic agent conjugate cleaved by F1 under the same conditions. The therapeutic agent in the standard (Dox or Dnr) was the same as in the test compound. Table 3 provides the relative cleavage rates of several tripeptide prodrugs.

in vivo = details: female, ICR, mouse, iv, 100 umol/kg
Method: Plasma was obtained from three individual animals in each group at 5 minutes, 1, 2, 4, or 6 hr.

[4] = after single intravenous 117 mg/kg Suc-Leu-Ala-Leu-Dox
[5] = after single intravenous 120 mg/kg Suc-Met-Ala-Leu-Dox

| Compound | inhibition of carcinoma cell trouase (carcinoma cell trouase) | Relative Cleavage % [3] | further results |
| --- | --- | --- | --- |
| c1cnc2c(c1)ccc1cccnc12 [1,10-phenanthroline] | inhibited | – | – |
| COc1cccc2c1C(=O)c1c(O)c3c(c(O)c1C2=O)C[C@@](O)(C(=O)CO)C[C@@H]3O[C@H]1C[C@H](NC(=O)[C@H](CC(C)C)NC(=O)[C@H](C)N)[C@H](O)[C@H](C)O1 [Ala-Leu-Dox] | – | – | Plasma 1 hr, percent of administered dose ([1]; mouse, in vivo, iv, 117 mg/kg): 0.006%; Plasma 4 hr, percent of administered dose ([1]; mouse, in vivo, iv, 117 mg/kg): 0.000%; Urine 2 hr, percent of administered dose ([1]; mouse, in vivo, iv, 117 mg/kg): 0.02%; Urine 24 hr, percent of administered dose ([1]; mouse, in vivo, iv, 117 mg/kg): 0.01%; Plasma 1 hr, percent of administered dose ([2]; mouse, in vivo, iv, 120 mg/kg): 0.002%; Plasma 4 hr, percent of administered dose ([2]; mouse, in vivo, iv, 120 mg/kg): 0.000%; Urine 2 hr, percent of administered dose ([2]; mouse, in vivo, iv, 120 mg/kg): 0.16%; Urine 24 hr, percent of administered dose ([2]; mouse, in vivo, iv, 120 mg/kg): 0.02% |
| CCCNC(=O)[C@H]1O[C@@H]1C(=O)N[C@H](C(=O)N1CCC[C@H]1C(=O)O)[C@@H](C)CC [CA074] | not | – | – |
| CC(C)C[C@H](NC(=O)[C@H]1O[C@@H]1C(=O)O)C(=O)NCCCCN=C(N)N [Compound E64, E64] | not | – | – |
| COc1cccc2c1C(=O)c1c(O)c3c(c(O)c1C2=O)C[C@@](O)(C(=O)CO)C[C@@H]3O[C@H]1C[C@H](NC(=O)[C@@H](N)CC(C)C)[C@H](O)[C@H](C)O1 [Leu-Dox] | – | – | Plasma 1 hr, percent of administered dose [1, 4]: 0.019%; Plasma 4 hr, percent of administered dose [1, 4]: 0.001%; Urine 2 hr, percent of administered dose [1, 4]: 1.53%; Urine 24 hr, percent of administered dose [1, 4]: 0.45%; Plasma 1 hr, percent of administered dose [2, 5]: 0.022%; Plasma 4 hr, percent of administered dose [2, 5]: 0.001%; Urine 2 hr, percent of administered dose [2, 5]: 7.28%; Urine 24 hr, percent of administered dose [2, 5]: 1.25%; plasma level, times higher than Ala-Leu-Dox ([2]; at both 1 and 4 hours after 120 mg/kg Suc-Met-Ala-Leu-Dox): about 10 times |
| COc1cccc2c1C(=O)c1c(O)c3c(c(O)c1C2=O)C[C@@](O)(C(C)=O)C[C@@H]3O[C@H]1C[C@H](NC(=O)[C@H](CC(C)C)NC(=O)[C@H](C)NC(=O)[C@H](CC(C)C)NC(=O)[C@@H]2CCC(=O)N2)[C@H](O)[C@H](C)O1 [Pyg-Leu-Ala-Leu-Dnr] ([pGlu]LAL-Daunorubicin) | – | 76% | – |
| COc1cccc2c1C(=O)c1c(O)c3c(c(O)c1C2=O)C[C@@](O)(C(C)=O)C[C@@H]3O[C@H]1C[C@H](NC(=O)[C@H](CC(C)C)NC(=O)[C@H](C)NC(=O)[C@H](CC(C)C)NC(=O)CCC(=O)O)[C@H](O)[C@H](C)O1 [Suc-Leu-Ala-Leu-Dnr] | – | 76% | – |
| COc1cccc2c1C(=O)c1c(O)c3c(c(O)c1C2=O)CC(O)(C(C)=O)CC3OC1CC(NC(=O)C(CC(C)C)NC(=O)C(C)NC(=O)C(CCSC)NC(=O)CCC(=O)O)C(O)C(C)O1 (stereo not drawn) [Suc-Met-Ala-Leu-Dnr] | – | 69% | – |
| CCC(C)C(NC(=O)CNC(=O)C(CCSC)NC(=O)CCC(=O)O)C(=O)NC1CC(OC2CC(O)(C(C)=O)Cc3c(O)c4c(c(O)c32)C(=O)c2c(OC)cccc2C4=O)OC(C)C1O (stereo not drawn) [Suc-Met-Gly-Ile-Dnr] | – | 46% | – |
| COc1cccc2c1C(=O)c1c(O)c3c(c(O)c1C2=O)CC(O)(C(C)=O)CC3OC1CC(NC(=O)C(CC(C)C)NC(=O)CNC(=O)C(CCSC)NC(=O)CCC(=O)O)C(O)C(C)O1 (stereo not drawn) [Suc-Met-Gly-Leu-Dnr] | – | 55% | – |
| COc1cccc2c1C(=O)c1c(O)c3c(c(O)c1C2=O)C[C@@](O)(C(C)=O)C[C@@H]3O[C@H]1C[C@H](NC(=O)[C@H](Cc2ccccc2)NC(=O)CNC(=O)[C@H](CCSC)NC(=O)CCC(=O)O)[C@H](O)[C@H](C)O1 [Suc-Met-Gly-Phe-Dnr] | – | 29% | – |
| CCCCC(NC(=O)CCC(=O)O)C(=O)NCC(=O)NC(Cc1ccccc1)C(=O)NC1CC(OC2CC(O)(C(C)=O)Cc3c(O)c4c(c(O)c32)C(=O)c2c(OC)cccc2C4=O)OC(C)C1O (stereo not drawn) [Suc-Nle-Gly-Phe-Dnr] | – | 17% | – |
| CCC(C)C(NC(=O)CNC(=O)C(Cc1ccccc1)NC(=O)CCC(=O)O)C(=O)NC1CC(OC2CC(O)(C(C)=O)Cc3c(O)c4c(c(O)c32)C(=O)c2c(OC)cccc2C4=O)OC(C)C1O (stereo not drawn) [Suc-Phe-Gly-Ile-Dnr] | – | 54% | – |
| COc1cccc2c1C(=O)c1c(O)c3c(c(O)c1C2=O)CC(O)(C(C)=O)CC3OC1CC(NC(=O)C(CC(C)C)NC(=O)CNC(=O)C(Cc2ccccc2)NC(=O)CCC(=O)O)C(O)C(C)O1 (stereo not drawn) [Suc-Phe-Gly-Leu-Dnr] | – | 24% | – |
| COc1cccc2c1C(=O)c1c(O)c3c(c(O)c1C2=O)CC(O)(C(C)=O)CC3OC1CC(NC(=O)C(Cc2ccccc2)NC(=O)CNC(=O)C(Cc2ccccc2)NC(=O)CCC(=O)O)C(O)C(C)O1 (stereo not drawn) [Suc-Phe-Gly-Phe-Dnr] | – | 12% | – |
| CCC(C)C(NC(=O)C(C)NC(=O)C(Cc1ccc(O)cc1)NC(=O)CCC(=O)O)C(=O)NC1CC(OC2CC(O)(C(C)=O)Cc3c(O)c4c(c(O)c32)C(=O)c2c(OC)cccc2C4=O)OC(C)C1O (stereo not drawn) [Suc-Tyr-Ala-Ile-Dnr] | – | 25% | – |
| COc1cccc2c1C(=O)c1c(O)c3c(c(O)c1C2=O)CC(O)(C(C)=O)CC3OC1CC(NC(=O)C(CC(C)C)NC(=O)C(C)NC(=O)C(Cc2ccc(O)cc2)NC(=O)CCC(=O)O)C(O)C(C)O1 (stereo not drawn) [Suc-Tyr-Ala-Len-Dnr] | – | 77% | – |
| CC[C@H](C)[C@H](NC(=O)CCNC(=O)CCC(=O)O)C(=O)N[C@@H](C)C(=O)N[C@@H](CC(C)C)C(=O)N[C@H]1C[C@H](O[C@H]2C[C@](O)(C(=O)CO)Cc3c(O)c4c(c(O)c32)C(=O)c2c(OC)cccc2C4=O)O[C@@H](C)[C@H]1O [Suc-βAla-Ile-Ala-Leu-Dox] | – | – | AUC (in vivo): 326 µM·h |
| [Zn+2] [Zn^2+] | – | – | inhibition of hydrolysis of Suc-βAla-Leu-Ala-Leu-Dox by HeLa cell Fraction 1 (carcinoma cell trouase; 100 μM): completely inhibits |
| CO[C@@H]1[C@H](OC(=O)/C=C/C=C/C=C/C=C/C(=O)O)CC[C@]2(CO2)[C@H]1[C@@]1(C)O[C@@H]1CC=C(C)C [fumagillin] | not | – | – |
| CC(=O)N[C@@H](CC(C)C)C(=O)N[C@@H](CC(C)C)C(=O)N[C@H](C=O)CCCNC(=N)N [leupeptin] | not | – | – |
| CC(C)CC(=O)N[C@H](C(=O)N[C@H](C(=O)N[C@@H](CC(C)C)[C@@H](O)CC(=O)N[C@@H](C)C(=O)N[C@@H](CC(C)C)[C@@H](O)CC(=O)O)C(C)C)C(C)C [pepstatin] (Isovaleryl-VV[Sta]A[Sta]-OH) | not | – | – |
| aminoethylbenzene-sufonate | not | – | – |
| aprotinin | not | – | – |
